Experimental data published in ChEMBL document CHEMBL4507268 (2021).

Legend:
Conditions in all cases: Compound concentration 1.0 uM
[1] = molecular target: Activated CDC42 kinase 1 (Homo sapiens) (UniProt Q07912)
[2] = molecular target: T1, Ephrin type-B receptor 1 (Homo sapiens) (UniProt P54762)
T1 sequence (whole entry): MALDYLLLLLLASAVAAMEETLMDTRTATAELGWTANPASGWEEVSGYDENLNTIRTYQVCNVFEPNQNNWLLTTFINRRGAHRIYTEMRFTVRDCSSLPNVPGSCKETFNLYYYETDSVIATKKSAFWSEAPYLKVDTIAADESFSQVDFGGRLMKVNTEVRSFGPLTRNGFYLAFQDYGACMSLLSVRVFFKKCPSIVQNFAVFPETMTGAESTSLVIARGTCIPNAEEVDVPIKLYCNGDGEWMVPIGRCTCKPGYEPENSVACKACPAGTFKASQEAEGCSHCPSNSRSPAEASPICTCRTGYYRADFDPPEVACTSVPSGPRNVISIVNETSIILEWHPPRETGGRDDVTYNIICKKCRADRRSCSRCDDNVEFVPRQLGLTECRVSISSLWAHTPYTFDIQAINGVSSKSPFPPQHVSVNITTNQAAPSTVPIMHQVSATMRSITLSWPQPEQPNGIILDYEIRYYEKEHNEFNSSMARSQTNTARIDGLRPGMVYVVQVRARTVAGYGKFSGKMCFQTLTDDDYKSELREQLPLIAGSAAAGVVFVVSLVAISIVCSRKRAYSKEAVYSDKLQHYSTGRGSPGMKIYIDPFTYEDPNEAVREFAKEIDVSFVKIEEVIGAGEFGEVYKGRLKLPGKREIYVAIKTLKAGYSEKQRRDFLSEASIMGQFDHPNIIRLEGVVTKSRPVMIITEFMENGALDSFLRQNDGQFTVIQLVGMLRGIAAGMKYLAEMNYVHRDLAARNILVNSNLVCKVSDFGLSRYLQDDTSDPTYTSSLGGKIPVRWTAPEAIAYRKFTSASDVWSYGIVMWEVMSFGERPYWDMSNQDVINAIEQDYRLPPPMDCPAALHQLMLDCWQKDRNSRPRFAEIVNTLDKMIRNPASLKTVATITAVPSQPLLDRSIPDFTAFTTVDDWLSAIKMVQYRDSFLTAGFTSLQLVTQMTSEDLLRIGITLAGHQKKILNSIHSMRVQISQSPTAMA

[3] = molecular target: T2, Serine/threonine-protein kinase STK11 (Homo sapiens) (UniProt Q15831)
T2 sequence (whole entry): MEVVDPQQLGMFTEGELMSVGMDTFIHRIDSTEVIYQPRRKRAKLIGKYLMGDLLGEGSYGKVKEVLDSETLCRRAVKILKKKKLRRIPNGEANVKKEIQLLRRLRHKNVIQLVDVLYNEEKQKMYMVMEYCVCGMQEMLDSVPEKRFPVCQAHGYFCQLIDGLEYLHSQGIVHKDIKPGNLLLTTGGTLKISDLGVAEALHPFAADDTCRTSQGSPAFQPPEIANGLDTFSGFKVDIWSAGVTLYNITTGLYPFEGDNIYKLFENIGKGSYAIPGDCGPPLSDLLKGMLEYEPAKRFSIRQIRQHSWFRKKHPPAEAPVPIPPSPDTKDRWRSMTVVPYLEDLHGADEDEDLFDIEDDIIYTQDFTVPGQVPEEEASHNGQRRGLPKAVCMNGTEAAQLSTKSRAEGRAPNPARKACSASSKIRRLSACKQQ

[4] = molecular target: Phosphorylase b kinase gamma catalytic chain, skeletal muscle/heart isoform (Homo sapiens) (UniProt Q16816)
[5] = molecular target: Ribosomal protein S6 kinase alpha-1 (Homo sapiens) (UniProt Q15418)
[6] = molecular target: T3, Serine/threonine-protein kinase Sgk3 (Homo sapiens) (UniProt Q96BR1)
T3 sequence (whole entry): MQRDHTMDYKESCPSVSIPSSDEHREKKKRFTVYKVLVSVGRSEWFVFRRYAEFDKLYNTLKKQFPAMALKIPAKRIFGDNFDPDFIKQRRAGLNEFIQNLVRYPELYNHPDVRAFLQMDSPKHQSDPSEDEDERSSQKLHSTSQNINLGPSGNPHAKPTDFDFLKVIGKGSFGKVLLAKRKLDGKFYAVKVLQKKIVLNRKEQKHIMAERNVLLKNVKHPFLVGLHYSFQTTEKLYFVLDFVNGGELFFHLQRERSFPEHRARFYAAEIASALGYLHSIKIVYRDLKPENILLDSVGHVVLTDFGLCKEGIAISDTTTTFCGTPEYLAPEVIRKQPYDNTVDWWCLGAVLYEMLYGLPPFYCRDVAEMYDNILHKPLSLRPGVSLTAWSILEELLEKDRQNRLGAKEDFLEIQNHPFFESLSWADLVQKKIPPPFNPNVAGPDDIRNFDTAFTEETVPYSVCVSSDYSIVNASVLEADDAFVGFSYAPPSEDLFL

[7] = molecular target: T4, Tyrosine-protein kinase Tec (Homo sapiens) (UniProt P42680)
T4 sequence (whole entry): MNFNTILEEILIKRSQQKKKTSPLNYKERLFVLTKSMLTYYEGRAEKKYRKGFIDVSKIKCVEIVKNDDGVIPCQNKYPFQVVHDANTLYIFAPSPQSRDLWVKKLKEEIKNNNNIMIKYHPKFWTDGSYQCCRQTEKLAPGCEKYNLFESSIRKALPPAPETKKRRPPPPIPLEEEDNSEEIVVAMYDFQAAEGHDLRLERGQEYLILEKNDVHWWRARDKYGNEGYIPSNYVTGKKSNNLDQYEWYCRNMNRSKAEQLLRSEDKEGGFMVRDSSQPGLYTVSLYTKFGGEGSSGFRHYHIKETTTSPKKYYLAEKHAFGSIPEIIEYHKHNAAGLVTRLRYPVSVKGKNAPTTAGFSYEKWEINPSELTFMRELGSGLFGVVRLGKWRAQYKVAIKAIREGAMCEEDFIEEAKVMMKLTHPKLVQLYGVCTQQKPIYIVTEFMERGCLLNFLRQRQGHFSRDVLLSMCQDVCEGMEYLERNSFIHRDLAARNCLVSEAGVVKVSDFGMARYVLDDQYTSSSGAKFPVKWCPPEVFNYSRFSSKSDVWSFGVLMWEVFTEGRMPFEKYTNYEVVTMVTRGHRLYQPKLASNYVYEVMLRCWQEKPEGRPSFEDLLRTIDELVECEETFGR

Measured: % residual kinase activity

Sequence of Ribosomal protein S6 kinase alpha-1 (Homo sapiens) (Q15418 whole entry): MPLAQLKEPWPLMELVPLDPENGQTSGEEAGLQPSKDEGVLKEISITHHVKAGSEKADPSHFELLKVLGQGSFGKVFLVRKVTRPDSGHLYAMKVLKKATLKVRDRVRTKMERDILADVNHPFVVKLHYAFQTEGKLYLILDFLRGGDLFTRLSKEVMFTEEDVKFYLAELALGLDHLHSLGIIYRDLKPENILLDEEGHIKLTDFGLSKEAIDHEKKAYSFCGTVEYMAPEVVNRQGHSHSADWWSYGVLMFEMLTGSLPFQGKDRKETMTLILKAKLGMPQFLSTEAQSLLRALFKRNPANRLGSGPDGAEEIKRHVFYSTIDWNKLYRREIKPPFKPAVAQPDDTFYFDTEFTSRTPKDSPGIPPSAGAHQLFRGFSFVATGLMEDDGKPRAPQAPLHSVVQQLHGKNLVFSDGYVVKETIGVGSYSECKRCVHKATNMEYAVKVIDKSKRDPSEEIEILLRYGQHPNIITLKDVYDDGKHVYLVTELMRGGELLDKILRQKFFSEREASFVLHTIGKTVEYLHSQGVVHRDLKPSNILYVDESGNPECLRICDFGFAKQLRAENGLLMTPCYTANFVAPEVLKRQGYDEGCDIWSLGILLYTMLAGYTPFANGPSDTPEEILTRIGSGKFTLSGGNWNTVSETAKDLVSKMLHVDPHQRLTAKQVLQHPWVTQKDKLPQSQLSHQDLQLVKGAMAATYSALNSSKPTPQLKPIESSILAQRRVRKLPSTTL
Sequence of Activated CDC42 kinase 1 (Homo sapiens) (Q07912 whole entry, looked up): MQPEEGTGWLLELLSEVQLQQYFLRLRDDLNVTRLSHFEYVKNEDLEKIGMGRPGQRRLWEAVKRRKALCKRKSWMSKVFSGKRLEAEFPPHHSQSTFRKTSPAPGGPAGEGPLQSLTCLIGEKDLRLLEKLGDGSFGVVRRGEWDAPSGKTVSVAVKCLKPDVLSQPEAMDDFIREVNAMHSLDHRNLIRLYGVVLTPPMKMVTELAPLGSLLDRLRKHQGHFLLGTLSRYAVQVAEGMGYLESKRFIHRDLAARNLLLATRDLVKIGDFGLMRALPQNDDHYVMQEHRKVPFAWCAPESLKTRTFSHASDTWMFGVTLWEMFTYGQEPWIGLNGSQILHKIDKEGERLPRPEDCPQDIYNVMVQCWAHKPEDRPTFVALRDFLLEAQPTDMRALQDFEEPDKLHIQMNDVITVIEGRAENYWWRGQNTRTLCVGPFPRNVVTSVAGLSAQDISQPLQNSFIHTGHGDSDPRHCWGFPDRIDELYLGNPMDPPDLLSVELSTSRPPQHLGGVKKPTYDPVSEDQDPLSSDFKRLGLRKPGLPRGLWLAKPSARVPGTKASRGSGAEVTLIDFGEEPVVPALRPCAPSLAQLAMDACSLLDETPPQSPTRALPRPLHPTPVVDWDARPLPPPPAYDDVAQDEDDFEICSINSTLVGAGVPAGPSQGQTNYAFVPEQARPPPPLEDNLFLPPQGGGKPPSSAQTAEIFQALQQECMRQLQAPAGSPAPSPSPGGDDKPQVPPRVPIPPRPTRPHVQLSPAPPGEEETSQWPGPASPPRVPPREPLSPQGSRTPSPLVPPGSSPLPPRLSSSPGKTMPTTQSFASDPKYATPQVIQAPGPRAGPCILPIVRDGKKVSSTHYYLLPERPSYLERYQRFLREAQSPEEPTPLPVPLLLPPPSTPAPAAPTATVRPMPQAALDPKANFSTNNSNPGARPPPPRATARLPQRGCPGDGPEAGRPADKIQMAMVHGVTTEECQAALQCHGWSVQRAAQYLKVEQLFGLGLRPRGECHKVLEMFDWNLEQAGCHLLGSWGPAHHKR
Sequence of Phosphorylase b kinase gamma catalytic chain, skeletal muscle/heart isoform (Homo sapiens) (Q16816 whole entry, looked up, canonical isoform): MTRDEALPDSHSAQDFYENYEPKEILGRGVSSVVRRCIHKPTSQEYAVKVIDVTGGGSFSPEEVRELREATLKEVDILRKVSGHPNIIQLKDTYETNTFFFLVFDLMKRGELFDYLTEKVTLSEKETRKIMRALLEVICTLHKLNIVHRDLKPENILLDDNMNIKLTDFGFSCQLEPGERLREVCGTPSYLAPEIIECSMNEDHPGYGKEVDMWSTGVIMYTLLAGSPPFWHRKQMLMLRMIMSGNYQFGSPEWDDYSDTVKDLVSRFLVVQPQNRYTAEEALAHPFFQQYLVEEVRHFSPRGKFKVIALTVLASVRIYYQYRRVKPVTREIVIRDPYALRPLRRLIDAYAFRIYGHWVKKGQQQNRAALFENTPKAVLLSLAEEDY

CN1CCN(c2cnc3c(C4CCN(C(=O)c5ccc(OC(F)(F)F)cc5N)CC4)ncnc3c2)CC1 [BAY-885]
inactive: [1] 101% | [2] 105% | [3] 104% | [4] 103% | [5] 121% | [6] 104% | [7] 112%
